Laboratory results from US11802127B2, “3,4-dihydro-2,7-naphthyridine-1,6(2H,7H)-diones as MEK inhibitors” (Pfizer Inc., priority 2021, dated 2023).

How the values were obtained:
[1] = tested on: ERK1/2(Thr202/Tyr204) phosphorylation (MEK-dependent) in A375 cells; test: Cellular Phospho-p44/42 MAPK (Erk1/2) (Thr202/Tyr204) Assay; type: cell-based; conditions: Homo sapiens, A-375, 1-hour incubation, pERK1/2 (Thr202/Tyr204) In-Cell Western normalized to GAPDH
Procedure: Inhibition of ERK1/2(Thr202/Tyr204) phosphorylation was determined by the following cellular assay, which comprises incubating cells with a compound for 1 hour and quantifying pERK signal by In-Cell Western on fixed cells and normalizing to GAPDH signal. A375 cells were obtained from the ATCC and grown in DMEM supplemented with 10% fetal bovine serum, penicillin/streptomycin, Glutamax®, non-essential amino acids, and sodium pyruvate. Cells were plated in 96-well plates at 30,000 cells/well and allowed to attach overnight at 37° C./5% CO2. Cells were treated with compounds prepared as a 10-point, 1:3 dilution series (range: 20 μM-0.05 nM; maximum concentration varied from 20 μM-1 μM), with a final DMSO concentration of 0.5%. Control wells contained either 0.5% DMSO alone (no inhibition control) or 1 μM of a potent control compound (complete inhibition control). After a 1-hour incubation, cells were fixed in 3.7% formaldehyde in dPBS (Dulbecco's phosphate-buffered saline) at room temperature for 20 minutes. Cells were then washed with dPBS and permeabilized in 100% MeOH at room temperature for 10 minutes. Following permeabilization, cells were washed in dPBS and incubated in LI-COR Blocking Buffer (LI-COR Biosciences, Cat #927-40000) for 1 hour or longer. Plates were then incubated with an antibody specific for the MEK-dependent ERK1/2 phosphorylation sites, threonine 202 and tyrosine 204 (Cell Signaling Technologies; Cat #9101), downstream of MEK in the MAP kinase signal transduction pathway, as well as GAPDH (Millipore; Cat #MAB374). pErk1/2 (Thr202/Tyr204) antibody was diluted in LI-COR blocking buffer containing 0.05% Tween-20 at 1:250; GAPDH was diluted at 1:2,500. The plates were incubated overnight at 4° C. After washing with PBS/0.05% Tween-20, the cells were incubated with fluorescently-labeled secondary antibodies (Anti-rabbit-Alexa Flour680, Invitrogen Cat #A21109; Anti-mouse-IRDye800CW, LI-COR Biosciences Cat #926-32210, both at 1:1000 dilution) for 1 hour. Cells were then washed, as above, and analyzed for fluorescence at both 680 and 800 nm wavelengths using the Odyssey CLx Infrared Imaging System (LI-COR Biosciences). Phosphorylated Erk1/2 (Thr202/Tyr204) signal was normalized to GAPDH signal for each well.

[2] = MDR1 LLC-PK1 and BCRP MDCKII Permeability Assay: permeability coefficient (Papp); type: in vitro ADME; conditions: MDCK, test article 1 μM, 37° C.
Procedure: (§1) Both LLC-PK1 and MDR1 transfected LLC-PK1 cells were cultured and plated according to manufacturer's recommendations with the exception that the passage media contained only 2% fetal bovine serum to extend passage time out to seven days.
(§2) BCRP transfected MDCKII canine P-gp knockout cell line was cultured and plated according to manufacturer's recommendations.
(§3) Both positive and negative controls were used to assess functionality of P-gp or BCRP efflux in the assays. Stock solutions for assay controls and the test article were prepared in DMSO for final test concentrations of 10 and 1 μM, respectively. Final organic concentration in the assay was 1%. All dosing solutions contained 10 μM lucifer yellow to monitor LLC-PK1 or MDCKII cell monolayer integrity.
(§4) For the apical to basolateral determination (A to B), 75 μL of the test article in transport buffer were added to the apical side of the individual transwells and 250 μL of basolateral media, without compound or lucifer yellow, were added to each well. For the basolateral to apical determination (B to A), 250 μL of test article in transport buffer were added to each well and 75 μL transport buffer, without compound or lucifer yellow, were added to each transwell. All tests were performed in triplicate, and each compound was tested for both apical to basolateral and basolateral to apical transport. The plates were incubated for 2 hours on a Lab-Line Instruments Titer Orbital Shaker (VWR, West Chester, PA) at 50 rpm and 37° C. with 5% CO2. All culture plates were removed from the incubator and 50 μL of media were removed from the apical and basolateral portion of each well and added to 150 μL of 1 μM labetalol in 2:1 acetonitrile (acetonitrile): H2O, v/v.
(§5) The plates were read using a Molecular Devices (Sunnyvale, CA) Gemini Fluorometer to evaluate the lucifer yellow concentrations at excitation/emission wavelengths of 425/535 nm. These values were accepted when found to be below 2% for apical to basolateral and 5% basolateral to apical flux across the MDR1-transfected LLC-PK1 or BCRP-transfected MDCKII cell monolayers. The plates were sealed and the contents of each well analyzed by LC-MS/MS. The compound concentrations were determined from the ratio of the peak areas of the compound to the internal standard (labetalol) in comparison to the dosing solution.
(§6) The LC-MS/MS system was comprised of an HTS-PAL autosampler (Leap Technologies, Carrboro, NC), an HP1200 HPLC (Agilent, Palo Alto, CA), and a MDS Sciex 4000 Q Trap system (Applied Biosystems, Foster City, CA). […] The total run time, including re-equilibration, for a single injection was 1.2 minutes. Mass spectrometric detection of the analytes was accomplished using the ion spray positive mode. Analyte responses were measured by multiple reaction monitoring (MRM) of transitions unique to each compound (the protonated precursor ion and selected product ions for each test article and m/z 329 to m/z 162 for labetalol, the internal standard).

P-gp (MDR1) = molecular target: T1, P-gp (MDR1) (Homo sapiens, UniProt P08183); test: Efflux ratio in MDR1 transfected LLC-PK1 cells; type: in vitro ADME; conditions: pig, Papp(B−A)/Papp(A−B)
T1 construct: expressed in transfected cells; host or cells: LLC-PK1 (porcine kidney) cells transfected with MDR1
T1 sequence (P08183 whole entry): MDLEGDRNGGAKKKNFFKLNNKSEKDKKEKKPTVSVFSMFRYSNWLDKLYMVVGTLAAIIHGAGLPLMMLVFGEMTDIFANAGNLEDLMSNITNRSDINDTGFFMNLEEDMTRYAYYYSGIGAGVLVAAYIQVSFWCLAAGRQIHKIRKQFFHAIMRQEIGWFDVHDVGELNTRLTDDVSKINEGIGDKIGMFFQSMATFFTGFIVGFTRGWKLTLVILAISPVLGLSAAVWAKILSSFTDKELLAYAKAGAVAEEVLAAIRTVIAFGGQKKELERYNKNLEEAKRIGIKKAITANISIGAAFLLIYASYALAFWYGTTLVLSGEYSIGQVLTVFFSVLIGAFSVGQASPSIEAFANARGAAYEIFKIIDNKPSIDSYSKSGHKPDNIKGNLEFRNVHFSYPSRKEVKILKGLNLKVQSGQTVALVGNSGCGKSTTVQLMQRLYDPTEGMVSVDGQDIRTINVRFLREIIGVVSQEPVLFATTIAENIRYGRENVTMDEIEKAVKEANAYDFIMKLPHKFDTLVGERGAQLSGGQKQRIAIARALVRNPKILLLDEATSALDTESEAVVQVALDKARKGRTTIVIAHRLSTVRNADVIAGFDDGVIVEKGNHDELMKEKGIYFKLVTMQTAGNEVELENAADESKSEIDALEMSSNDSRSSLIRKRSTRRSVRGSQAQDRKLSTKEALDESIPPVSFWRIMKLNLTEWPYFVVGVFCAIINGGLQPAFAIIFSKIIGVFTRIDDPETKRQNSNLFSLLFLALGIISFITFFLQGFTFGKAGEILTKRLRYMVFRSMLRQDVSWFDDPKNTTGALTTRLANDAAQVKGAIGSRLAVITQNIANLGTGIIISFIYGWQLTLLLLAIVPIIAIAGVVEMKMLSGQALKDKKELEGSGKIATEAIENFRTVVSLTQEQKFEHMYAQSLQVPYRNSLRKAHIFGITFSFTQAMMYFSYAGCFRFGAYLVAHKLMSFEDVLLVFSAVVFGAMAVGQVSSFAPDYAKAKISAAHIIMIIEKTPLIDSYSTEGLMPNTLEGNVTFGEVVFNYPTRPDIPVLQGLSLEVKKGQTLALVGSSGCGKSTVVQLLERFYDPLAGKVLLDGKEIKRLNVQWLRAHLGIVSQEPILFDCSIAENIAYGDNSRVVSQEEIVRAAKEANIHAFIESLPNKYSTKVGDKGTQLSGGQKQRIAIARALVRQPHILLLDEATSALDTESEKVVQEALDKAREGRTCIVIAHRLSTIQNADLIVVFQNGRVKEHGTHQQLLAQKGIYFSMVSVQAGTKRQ
Procedure: as §1, §3, §4, §5, §6
(§7) An efflux ratio is calculated from the mean apical to basolateral (A−B) Papp data and basolateral to apical (B−A) Papp data: Efflux ratio=Papp(B−A)/Papp(A−B)

BCRP (hBCRP) = molecular target: T2, BCRP (hBCRP) (Homo sapiens, UniProt Q9UNQ0); test: Efflux ratio in BCRP transfected MDCKII canine P-gp knockout cells; type: in vitro ADME; conditions: Papp(B−A)/Papp(A−B), read-out: Efflux ratio MDCKII-hBCRP knock-in,canine pg-P KO
T2 construct: expressed in transfected cells; host or cells: MDCKII (canine kidney) cells, canine P-gp knockout, transfected with BCRP
T2 sequence (Q9UNQ0 1-655): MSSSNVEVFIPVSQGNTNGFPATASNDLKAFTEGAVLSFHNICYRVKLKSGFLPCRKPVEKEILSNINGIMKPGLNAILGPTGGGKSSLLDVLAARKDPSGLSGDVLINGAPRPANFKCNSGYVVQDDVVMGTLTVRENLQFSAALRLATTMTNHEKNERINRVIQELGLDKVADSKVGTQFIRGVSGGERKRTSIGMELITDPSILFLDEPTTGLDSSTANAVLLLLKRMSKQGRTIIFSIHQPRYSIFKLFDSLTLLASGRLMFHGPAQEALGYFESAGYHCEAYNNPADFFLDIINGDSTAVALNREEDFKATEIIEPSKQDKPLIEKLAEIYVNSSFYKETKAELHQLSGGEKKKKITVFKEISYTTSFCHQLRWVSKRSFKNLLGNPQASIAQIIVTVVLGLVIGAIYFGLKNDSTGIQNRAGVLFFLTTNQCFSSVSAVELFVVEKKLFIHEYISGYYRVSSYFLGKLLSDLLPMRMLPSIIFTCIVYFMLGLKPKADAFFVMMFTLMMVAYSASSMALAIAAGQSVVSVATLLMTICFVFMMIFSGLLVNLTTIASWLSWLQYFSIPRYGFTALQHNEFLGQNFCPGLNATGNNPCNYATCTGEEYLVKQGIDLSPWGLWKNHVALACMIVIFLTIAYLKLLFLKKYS
Procedure: as §2, §3, §4, §5, §6, §7

Papp at 2 h, 1 μM [2] | efflux ratio at 2 h, 1 μM (P-gp (MDR1)) | efflux ratio at 2 h, 1 μM (BCRP (hBCRP)) | SMILES | IC50 [1]
27.2 ×10⁻⁶ cm/s | 1.4 | 1.1 | Cn1c(Nc2ccc(Br)cc2F)c2c(cc1=O)CCN(C1CC1)C2=O [Example 1] | 562 nM
46.2 ×10⁻⁶ cm/s | 1 | 0.9 | CCON1CCc2cc(=O)n(C)c(Nc3ccc(Br)cc3F)c2C1=O [Example 3, 8-((4-bromo-2-fluorophenyl)amino)-2-ethoxy-7-methyl-3,4-dihydro-2,7-naphthyridine-1,6(2H,7H)-dione] | 456 nM
26.1 ×10⁻⁶ cm/s | 1.3 | 1.1 | CSc1ccc(Nc2c3c(cc(=O)n2C)CCN(C2CC2)C3=O)c(F)c1 [Example 4, 2-cyclopropyl-8-((2-fluoro-4-(methylthio)phenyl)amino)-7-methyl-3,4-dihydro-2,7-naphthyridine-1,6(2H,7H)-dione] | 74 nM
27.8 ×10⁻⁶ cm/s | 1.6 | 1 | Cn1c(Nc2ccc(I)cc2F)c2c(cc1=O)CCN(C1CC1)C2=O [Example 5, 2-cyclopropyl-8-((2-fluoro-4-iodophenyl)amino)-7-methyl-3,4-dihydro-2,7-naphthyridine-1,6(2H,7H)-dione] | 20 nM
27.1 ×10⁻⁶ cm/s | 7.7 | 3.2 | Cn1c(Nc2ccc(I)cc2Cl)c2c(cc1=O)CCN(OCCO)C2=O [Example 9, 8-((2-chloro-4-iodophenyl)amino)-2-(2-hydroxyethoxy)-7-methyl-3,4-dihydro-2,7-naphthyridine-1,6(2H,7H)-dione] | 3 nM
 | 2.3 | 2 | CC(C)c1ccc(Nc2c3c(cc(=O)n2C)CCN(OCCO)C3=O)c(F)c1 [Example 18, 8-((2-fluoro-4-isopropylphenyl)amino)-2-(2-hydroxyethoxy)-7-methyl-3,4-dihydro-2,7-naphthyrdine-1,6(2H,7H)-dione] | 39 nM
31.5 ×10⁻⁶ cm/s | 1.3 |  | Cc1c2c(c(Nc3ccc(Br)cc3F)n(C)c1=O)C(=O)NCC2 [Example 47, 8-((4-bromo-2-fluorophenyl)amino)-5,7-dimethyl-3,4-dihydro-2,7-naphthyridine-1,6(2H,7H)-dione] | 97 nM
26.9 ×10⁻⁶ cm/s | 3 |  | CSc1ccc(Nc2c3c(c(C)c(=O)n2C)CCN(OCCO)C3=O)c(F)c1 [Example 61, 8-((2-fluoro-4-(methylthio)phenyl)amino)-2-(2-hydroxyethoxy)-5,7-dimethyl-3,4-dihydro-2,7-naphthyridine-1,6(2H,7H)-dione] | 11 nM
26.1 ×10⁻⁶ cm/s | 5 |  | Cc1c2c(c(Nc3ccc(OC(F)F)cc3F)n(C)c1=O)C(=O)N(OCCO)CC2 [Example 62, 8-((4-(difluoromethoxy)-2-fluorophenyl)amino)-2-(2-hydroxyethoxy)-5,7-dimethyl-3,4-dihydro-2,7-naphthyridine-1,6(2H,7H)-dione] | 17 nM
12.5 ×10⁻⁶ cm/s |  | 0.8 | CSc1ccc(Nc2c3c(cc(=O)n2C)C(c2ccccc2)CNC3=O)c(F)c1 (centres unmarked) [Example 65, 8-((2-fluoro-4-(methylthio)phenyl)amino)-7-methyl-4-phenyl-3,4-dihydro-2,7-naphthyridine-1,6(2H,7H)-dione] | 2 nM
24.9 ×10⁻⁶ cm/s |  | 1 | CC1CNC(=O)c2c1cc(=O)n(C)c2Nc1ccc(Br)cc1F (centres unmarked) [Example 66, 8-((4-bromo-2-fluorophenyl)amino)-4,7-dimethyl-3,4-dihydro-2,7-naphthyrdine-1,6(2H,7H)-dione] | 27 nM
28.3 ×10⁻⁶ cm/s |  | 1.1 | CSc1ccc(Nc2c3c(cc(=O)n2C)C(C)CNC3=O)c(F)c1 (centres unmarked) [Example 67, 8-((2-fluoro-4-(methylthio)phenyl)amino)-4,7-dimethyl-3,4-dihydro-2,7-naphthyrdine-1,6(2H,7H)-dione] | 8 nM
18.7 ×10⁻⁶ cm/s |  | 2.5 | CC1CN(OCCO)C(=O)c2c1cc(=O)n(C)c2Nc1ccc(Br)cc1F (centres unmarked) [Example 68, 8-((4-bromo-2-fluorophenyl)amino)-2-(2-hydroxyethoxy)-4,7-dimethyl-3,4-dihydro-2,7-naphthyridine-1,6(2H,7H)-dione] | 3 nM
19.6 ×10⁻⁶ cm/s |  | 2.3 | CSc1ccc(Nc2c3c(cc(=O)n2C)C(C)CN(OCCO)C3=O)c(F)c1 (centres unmarked) [Example 69, 8-((2-fluoro-4-(methylthio)phenyl)amino)-2-(2-hydroxyethoxy)-4,7-dimethyl-3,4-dihydro-2,7-naphthyridine-1,6(2H,7H)-dione] | 2 nM
